Where a name gives a salt, the structure may show the parent alone.
Key:
CK1α = target: T1, CK1α (Homo sapiens, UniProt P48729+Q96SW2); experiment: CK1α NanoBiT assay (HiBiT-tagged CSNK1A1 in HEK293 clonal line); type: cell-based; conditions: HEK293 HiBiT-CSNK1A1/LgBiT cells, 24 h incubation, luminescence
T1 construct: HEK293 clonal line with CRISPR KI HiBiT tag on CSNK1A1; host or cells: HEK293 clonal line, CRISPR HiBiT knock-in at CSNK1A1, stably expressing LgBiT
Experimental: HEK293 clonal line with CRISPR KI HiBiT tag on CSNK1A1 and stably expressing LgBiT protein was obtained from Promega (Madison, WI). Cells were plated at 5000 cells per well using Multiflo (BioTek) in 384-well white solid bottom plates (Corning, 3570BC) in […] volume in DMEM media (DMEM, high glucose, HEPES, no phenol red (ThermoFisher Scientific, 21063029)) containing 10% FBS (Corning, 35-075-CV), 1% Penicillin/Streptomycin ((ThermoFisher Scientific, 15140-122), and 0.2% Endurazine (Nano-Glo Endurazine Live Cell Substrate (Promega, N2571)). Cells were incubated for 16 hours at 37C, 5% CO2. Depending on experiment 25 or 75 nL of a compound at 10 mM were added into the plate using an Echo®650 liquid handler (Labcyte) to achieve final concentration of […] in wells. Cells were incubated at 37° C., 5% CO2 for 24 hours followed by signal was read on Pherastar FSX using “LUM plus” optic module.
Data analysis was performed using Scinamic (Scinamic, Cambridge, MA).
Luminescence response (R) was calculated by the formula: response=100*(S−N)/(P−N), where S is the signal of the well, N and P the mean negative and positive control values, respectively, of the same plate. The luminescence response was then fitted in Scinamic using a 3-parameter agonist logistic fit (hillslope=1, EC50>0, top/bottom unconstrained).
DC50 data are reported in Table 2 for compounds in Table 1. In Table 2 below, According to the code, A represents a DC50 value of ≤0.1 μM, B represents a DC50 value>0.1 μM and ≤1 μM, C represents an DC50 value>1 μM.

CRBN/DDB1 = CRBN/DDB1 (Homo sapiens, UniProt Q96SW2); experiment: HTRF binding assay (thalidomide probe displacement from CRBN/DDB1); conditions: CRBN/DDB1 2.5 nM, Cy5-Thalidomide 100 nM, 30 min; geometric mean; read-out: HTRF_Thali_Disp_DR—geo_IC50
Excerpt: Binding of test compounds to CRBN/DDB1 was monitored in an HTRF assay using 1-[5-({2-[2-(2-{[2-(2,6-dioxopiperidin-3-yl)-1,3-dioxo-2,3-dihydro-1H-isoindol-4-yl]oxy}acetamido)ethoxy]ethyl}carbamoyl)pentyl]-3,3-dimethyl-2-[(1E,3E)-5-[(2E)-1,3,3-trimethyl-5-sulfo-2,3-dihydro-1H-indol-2-ylidene]penta-1,3-dien-1-yl]-3H-indol-1-ium-5-sulfonate as a fluorescent probe. In this assay, compounds displace the fluorescently labeled thalidomide-based probe bound to CRBN and fluorescence is monitored with increasing compound concentration. Assays were conducted in Greiner white 384 well HiBase plates (Cat. No 784075-25) in 10 μL total volume. A one pot detection solution of CRBN/DDB1 (2.5 nM), anti-His Terbium Cryptate Gold (1×, PerkinElmer Cat. #: 61HI2TLB), and Cy5-Thalidomide (100 nM, Tenova Cat.: T52461) was prepared in 20 mM HEPES, 20 mM NaCl, 0.2 mM TCEP, 0.2 mM EDTA, and 0.005% Tween20 was dispensed to each assay plate. Test compounds were stored in dry, ambient temperatures at 10 mM. A 10-point, 1:3 dilution series was prepared from 10 mM stock concentrations in Echo-compatible LDV plates. 10 nL of each compound dilution series was dispensed into assays wells using an Echo 650 (Labcyte inc. USA). 10 nL of 10 mM lenalidomide (Selleckchem Cat no. S1029) was transferred into the active-control wells for the assay and 10 nL of DMSO was transferred into the negative control wells. The assay was then allowed to incubate for 30 min at ambient temperature after transferring the test compounds. Plate measurements were taken on a Pherastar FSX (BMG Labtech, Germany) using the HTRF Red filter (Ex. 337 nm, eml: 620 nm, em2: 665 nm) (Flashes: 50, Integration time: 60-400 μs, Z-height: 10 mm, Ratio-multiplier: 10,000). Analysis, HTRF ratio and IC50 values were derived using KNIME analytics (KNIME Zurich) transformation and fitting within Collaborative Drug Discovery (Collaborative Drug Discovery USA) using a 4-parameter logistic fit. HTRF ratio calculation was performed using the following formula: […]
where em665nm represents the measured emission at 665 nm upon excitation at 337 nm and em620nm the measured emission at 620 nm upon excitation at 337 nm. The 4 parameter logistic fitting model was performed using the following formula: […]
where Y represents the HTRF ratio response (as defined previously), X the compound concentration in μM, Ymin the minimum response plateau, Ymax the maximum response plateau, IC50 the concentration of agonist that gives a response half way between Ymin and Ymax and HillSlope the steepness of the family of curves. No fitting model constraints was applied on Ymin, or Ymax whilst IC50>0 and −0.5>HillSlope>−3
Ki values were derived from the geometric mean of the IC50 values using the Cheng-Prusoff transformation:
where [L] represents the concentration of fluorescent probe in μM, Kd the affinity (binding constant) of the fluorescent probe in units of μM and IC50 the concentration of agonist that gives a response halfway between Ymin and Ymax (as described in 1.2.1)
Analysis and IC50 values were derived using KNIME analytics (KNIME, Zurich) transformation and fitting within Collaborative Drug Discovery (Collaborative Drug Discovery, USA) as described in 1.2.1. Ki values were derived from the geometric mean of the IC50 values using the Cheng-Prusoff transformation as described in 2.2.2. Data was visualized in GraphPad Prism 8.1.2 (GraphPad, USA) and reported as mean and standard deviation. Microsoft Office Excel 2012 (Redmond, WA) was used for calculation of mean and standard deviation.
IC50 data are reported in Table 3 for compounds in Table 1. In Table 3 below, According to the code, A represents a IC50 value of ≤0.1 μM, B represents a IC50 value≥0.1 μM and ≤1 μM, C represents an IC50 value>1 μM.

T1 sequence (P48729 whole entry): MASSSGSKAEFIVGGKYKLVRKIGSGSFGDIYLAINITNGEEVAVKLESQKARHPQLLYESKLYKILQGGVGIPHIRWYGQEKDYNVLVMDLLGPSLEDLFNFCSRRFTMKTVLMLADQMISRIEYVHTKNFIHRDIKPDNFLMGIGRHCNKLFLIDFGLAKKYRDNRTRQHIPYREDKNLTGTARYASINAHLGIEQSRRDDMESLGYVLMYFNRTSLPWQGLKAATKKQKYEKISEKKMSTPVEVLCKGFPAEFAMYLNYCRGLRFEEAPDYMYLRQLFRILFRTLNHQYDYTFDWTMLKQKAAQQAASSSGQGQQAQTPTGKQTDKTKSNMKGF
T1 sequence (Q96SW2 whole entry): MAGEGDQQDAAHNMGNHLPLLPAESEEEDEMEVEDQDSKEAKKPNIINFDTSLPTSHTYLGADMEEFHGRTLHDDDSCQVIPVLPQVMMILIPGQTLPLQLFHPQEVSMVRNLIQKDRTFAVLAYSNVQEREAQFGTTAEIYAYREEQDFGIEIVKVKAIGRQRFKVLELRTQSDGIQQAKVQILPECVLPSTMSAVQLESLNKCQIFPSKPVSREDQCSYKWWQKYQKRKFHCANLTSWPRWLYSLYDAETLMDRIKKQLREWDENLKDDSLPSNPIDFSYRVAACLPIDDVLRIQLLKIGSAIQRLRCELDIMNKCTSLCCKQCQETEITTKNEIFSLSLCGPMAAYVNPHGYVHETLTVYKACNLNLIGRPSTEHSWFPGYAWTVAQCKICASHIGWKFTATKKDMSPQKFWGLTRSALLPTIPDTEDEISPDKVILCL
T1 sequence (Q16531 2-1140 partner limits assumed): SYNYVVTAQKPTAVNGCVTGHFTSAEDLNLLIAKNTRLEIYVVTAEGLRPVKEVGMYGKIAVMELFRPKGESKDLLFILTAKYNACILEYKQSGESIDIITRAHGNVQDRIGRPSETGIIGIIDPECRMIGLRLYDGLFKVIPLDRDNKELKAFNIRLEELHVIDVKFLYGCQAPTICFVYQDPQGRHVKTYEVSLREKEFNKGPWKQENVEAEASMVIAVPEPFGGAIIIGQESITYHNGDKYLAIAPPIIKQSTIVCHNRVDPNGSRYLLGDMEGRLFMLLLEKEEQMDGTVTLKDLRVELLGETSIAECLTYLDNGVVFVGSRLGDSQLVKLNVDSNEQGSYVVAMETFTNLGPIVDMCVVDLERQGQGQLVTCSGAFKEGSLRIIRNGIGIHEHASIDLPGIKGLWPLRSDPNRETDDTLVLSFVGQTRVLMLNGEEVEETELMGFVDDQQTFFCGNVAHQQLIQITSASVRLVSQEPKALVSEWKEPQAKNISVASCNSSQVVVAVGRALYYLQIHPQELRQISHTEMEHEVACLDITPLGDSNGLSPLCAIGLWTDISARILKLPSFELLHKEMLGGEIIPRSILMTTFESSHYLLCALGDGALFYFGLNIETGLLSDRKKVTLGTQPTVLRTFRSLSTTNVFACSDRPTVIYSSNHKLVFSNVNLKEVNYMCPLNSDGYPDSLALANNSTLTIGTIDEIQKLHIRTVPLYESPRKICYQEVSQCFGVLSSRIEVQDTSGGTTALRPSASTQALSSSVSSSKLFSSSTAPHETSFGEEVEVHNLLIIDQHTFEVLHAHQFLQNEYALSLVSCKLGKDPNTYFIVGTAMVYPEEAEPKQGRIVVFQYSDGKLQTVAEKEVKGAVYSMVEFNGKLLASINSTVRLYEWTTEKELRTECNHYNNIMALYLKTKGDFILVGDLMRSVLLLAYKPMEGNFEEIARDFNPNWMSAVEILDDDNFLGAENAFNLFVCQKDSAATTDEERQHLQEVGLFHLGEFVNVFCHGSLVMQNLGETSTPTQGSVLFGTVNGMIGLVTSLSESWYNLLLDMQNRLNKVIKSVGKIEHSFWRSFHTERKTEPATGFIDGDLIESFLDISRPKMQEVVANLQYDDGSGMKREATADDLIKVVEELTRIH
Sequence of CRBN/DDB1 (Q96SW2 whole entry): as the sequence (Q96SW2 whole entry) above
Sequence of CRBN/DDB1 (Q16531 whole entry partner): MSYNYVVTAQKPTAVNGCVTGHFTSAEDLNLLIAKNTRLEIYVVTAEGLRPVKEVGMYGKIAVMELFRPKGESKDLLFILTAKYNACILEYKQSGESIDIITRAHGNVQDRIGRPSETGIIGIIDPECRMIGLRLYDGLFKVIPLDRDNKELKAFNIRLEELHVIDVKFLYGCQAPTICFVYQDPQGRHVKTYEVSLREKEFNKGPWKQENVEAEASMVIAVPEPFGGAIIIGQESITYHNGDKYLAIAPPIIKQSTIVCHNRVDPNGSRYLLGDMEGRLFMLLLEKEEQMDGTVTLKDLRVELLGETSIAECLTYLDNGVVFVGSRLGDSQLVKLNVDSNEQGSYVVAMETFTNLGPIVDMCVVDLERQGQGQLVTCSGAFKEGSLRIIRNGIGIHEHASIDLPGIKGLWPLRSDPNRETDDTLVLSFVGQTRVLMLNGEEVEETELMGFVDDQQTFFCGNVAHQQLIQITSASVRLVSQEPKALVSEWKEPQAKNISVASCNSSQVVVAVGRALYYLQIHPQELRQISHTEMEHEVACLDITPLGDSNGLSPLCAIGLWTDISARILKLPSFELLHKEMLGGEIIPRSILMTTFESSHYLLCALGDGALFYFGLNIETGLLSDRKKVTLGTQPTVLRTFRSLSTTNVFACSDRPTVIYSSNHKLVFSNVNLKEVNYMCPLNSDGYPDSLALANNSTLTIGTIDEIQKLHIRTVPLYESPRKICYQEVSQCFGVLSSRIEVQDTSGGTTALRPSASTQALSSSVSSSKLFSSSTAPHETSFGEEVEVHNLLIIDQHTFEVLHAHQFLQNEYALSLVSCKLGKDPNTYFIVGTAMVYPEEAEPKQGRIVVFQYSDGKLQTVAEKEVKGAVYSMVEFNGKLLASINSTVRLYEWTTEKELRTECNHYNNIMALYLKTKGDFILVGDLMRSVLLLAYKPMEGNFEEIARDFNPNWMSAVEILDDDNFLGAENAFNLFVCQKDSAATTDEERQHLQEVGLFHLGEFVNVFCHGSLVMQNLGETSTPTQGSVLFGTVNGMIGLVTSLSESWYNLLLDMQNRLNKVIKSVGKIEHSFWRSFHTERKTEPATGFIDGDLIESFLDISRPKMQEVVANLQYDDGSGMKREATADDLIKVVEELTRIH

| SMILES | DC50 (CK1α) [µM] | IC50 (CRBN/DDB1) [nM] |
| --- | --- | --- |
| Cn1ccnc1C(=O)Nc1ccc2c(c1)CN(C1CCC(=O)NC1=O)C2=O (stereo not shown) [Compound 119, N-(2-(2,6-dioxopiperidin-3-yl)-1-oxoisoindolin-5-yl)-1-methyl-1H-imidazole-2-carboxamide] | > 1 | 100 to 1000 |
| Cc1ccc(C(=O)Nc2ccc3c(c2)CN(C2CCC(=O)NC2=O)C3=O)cn1 (stereo not shown) [Compound 123, N-(2-(2,6-dioxopiperidin-3-yl)-1-oxoisoindolin-5-yl)-6-methylnicotinamide] | 0.1 to 1 | 100 to 1000 |
| O=C1CCC(N2Cc3cc(NC(=O)c4cccc5c4CC(=O)N5)ccc3C2=O)C(=O)N1 (stereo not shown) [Compound 124, N-(2-(2,6-dioxopiperidin-3-yl)-1-oxoisoindolin-5-yl)-2-oxoindoline-4-carboxamide] | 0.1 to 1 | ≤ 100 |
| O=C1CCC(N2Cc3cc(NC(=O)c4ccccc4C4CCCC4)ccc3C2=O)C(=O)N1 (stereo not shown) [Compound 128, 2-cyclopentyl-N-(2-(2,6-dioxopiperidin-3-yl)-1-oxoisoindolin-5-yl)benzamide formate] | > 1 | 100 to 1000 |
| N#Cc1ccc(C(=O)Nc2ccc3c(c2)CN(C2CCC(=O)NC2=O)C3=O)cc1 (stereo not shown) [Compound 130, 4-cyano-N-(2-(2,6-dioxopiperidin-3-yl)-1-oxoisoindolin-5-yl)benzamide] | 0.1 to 1 | 100 to 1000 |
| Cc1ccccc1C(=O)Nc1ccc2c(c1)CN(C1CCC(=O)NC1=O)C2=O (stereo not shown) [Compound 132, N-(2-(2,6-dioxo-3-piperidyl)-1-oxo-isoindolin-5-yl)-2-methyl-benzamide] | 0.1 to 1 | 100 to 1000 |
| O=C1CCC(N2Cc3cc(NC(=O)c4ccccn4)ccc3C2=O)C(=O)N1 (stereo not shown) [Compound 133, N-(2-(2,6-dioxopiperidin-3-yl)-1-oxoisoindolin-5-yl)] | 0.1 to 1 | 100 to 1000 |
| CC(C)Cc1ccccc1C(=O)Nc1ccc2c(c1)CN(C1CCC(=O)NC1=O)C2=O (stereo not shown) [Compound 134, N-(2-(2,6-dioxopiperidin-3-yl)-1-oxoisoindolin-5-yl)-2-isobutylbenzamide] | 0.1 to 1 | 100 to 1000 |
| N#Cc1cccc(C(=O)Nc2ccc3c(c2)CN(C2CCC(=O)NC2=O)C3=O)c1 (stereo not shown) [Compound 136, 3-cyano-N-(2-(2,6-dioxopiperidin-3-yl)-1-oxoisoindolin-5-yl) benzamide] | 0.1 to 1 | 100 to 1000 |
| Cc1cccc(C(=O)Nc2ccc3c(c2)CN(C2CCC(=O)NC2=O)C3=O)c1 (stereo not shown) [Compound 139, N-(2-(2,6-dioxopiperidin-3-yl)-1-oxoisoindolin-5-yl)-3-methylbenzamide] | < 0.1 | 100 to 1000 |
| CC(C)c1ccccc1C(=O)Nc1ccc2c(c1)CN(C1CCC(=O)NC1=O)C2=O (stereo not shown) [Compound 140, N-(2-(2,6-dioxopiperidin-3-yl)-1-oxoisoindolin-5-yl)-2-isopropylbenzamide] | 0.1 to 1 | 100 to 1000 |
| CCc1ccccc1C(=O)Nc1ccc2c(c1)CN(C1CCC(=O)NC1=O)C2=O (stereo not shown) [Compound 141, N-(2-(2,6-dioxopiperidin-3-yl)-1-oxoisoindolin-5-yl)-2-ethylbenzamide] | 0.1 to 1 | 100 to 1000 |
| O=C1CCC(N2Cc3cc(NC(=O)c4cccc(F)c4)ccc3C2=O)C(=O)N1 (stereo not shown) [Compound 142, N-(2-(2,6-dioxopiperidin-3-yl)-1-oxoisoindolin-5-yl)-3-fluorobenzamide] | < 0.1 | 100 to 1000 |
| O=C1CCC(N2Cc3cc(NC(=O)c4ccccc4F)ccc3C2=O)C(=O)N1 (stereo not shown) [Compound 143, N-(2-(2,6-dioxopiperidin-3-yl)-1-oxoisoindolin-5-yl)-2-fluorobenzamide] | 0.1 to 1 | 100 to 1000 |

Results, then the compound that gave them:

| DC50 (CK1α) [µM] | IC50 (CRBN/DDB1) [nM] | SMILES |
| --- | --- | --- |
| < 0.1 | 100 to 1000 | O=C1CCC(N2Cc3cc(NC(=O)c4ncco4)ccc3C2=O)C(=O)N1 (stereo not shown) [Compound 120, N-(2-(2,6-dioxopiperidin-3-yl)-1-oxoisoindolin-5-yl)oxazole-2-carboxamide] |
| < 0.1 | 100 to 1000 | O=C1CCC(N2Cc3cc(NC(=O)c4ccc(Cl)c(F)c4)ccc3C2=O)C(=O)N1 (stereo not shown) [Compound 121, 4-chloro-N-(2-(2,6-dioxopiperidin-3-yl)-1-oxoisoindolin-5-yl)-3-fluorobenzamide] |
| < 0.1 | 100 to 1000 | O=C1CCC(N2Cc3cc(NC(=O)c4ccc(C(F)(F)F)cc4)ccc3C2=O)C(=O)N1 (stereo not shown) [Compound 122, N-(2-(2,6-dioxopiperidin-3-yl)-1-oxoisoindolin-5-yl)-4-(trifluoromethyl)benzamide] |
| < 0.1 | 100 to 1000 | O=C1CCC(N2Cc3cc(NC(=O)c4cccc(C(F)(F)F)c4)ccc3C2=O)C(=O)N1 (stereo not shown) [Compound 125, N-(2-(2,6-dioxopiperidin-3-yl)-1-oxoisoindolin-5-yl)-3-(trifluoromethyl)benzamide] |
| < 0.1 | 100 to 1000 | O=C1CCC(N2Cc3cc(NC(=O)c4ccc(F)cc4)ccc3C2=O)C(=O)N1 (stereo not shown) [Compound 126, N-(2-(2,6-dioxopiperidin-3-yl)-1-oxoisoindolin-5-yl)-4-fluorobenzamide] |
| < 0.1 | 100 to 1000 | Cc1ccc(C(=O)Nc2ccc3c(c2)CN(C2CCC(=O)NC2=O)C3=O)cc1 (stereo not shown) [Compound 127, N-(2-(2,6-dioxopiperidin-3-yl)-1-oxoisoindolin-5-yl)-4-methylbenzamide] |
| < 0.1 | 100 to 1000 | O=C1CCC(N2Cc3cc(NC(=O)c4cccc5c4CCC5)ccc3C2=O)C(=O)N1 (stereo not shown) [Compound 129, N-(2-(2,6-dioxopiperidin-3-yl)-1-oxoisoindolin-5-yl)-2,3-dihydro-1H-indene-4-carboxamide] |
| < 0.1 | 100 to 1000 | O=C1CCC(N2Cc3cc(NC(=O)c4ccc(Cl)cc4F)ccc3C2=O)C(=O)N1 (stereo not shown) [Compound 131, 4-chloro-N-(2-(2,6-dioxopiperidin-3-yl)-1-oxoisoindolin-5-yl)-2-fluorobenzamide] |
| < 0.1 | 100 to 1000 | O=C1CCC(N2Cc3cc(NC(=O)c4ccccc4C(F)(F)F)ccc3C2=O)C(=O)N1 (stereo not shown) [Compound 137, N-(2-(2,6-dioxopiperidin-3-yl)-1-oxoisoindolin-5-yl)-2-(trifluoromethyl)benzamide] |

Source: patent publication US20250115582A1, “MOLECULAR GLUE DEGRADERS AND METHODS OF USING THE SAME” (Monte Rosa Therapeutics, Inc., priority 2022, published 2025)
